# Results published in patent US20090203685A1, “ANTI-PROLIFERATIVE COMPOUNDS FROM A 3-ARYL-COUMARINE OR 3-ARYL-QUINOLIN-2-ONE AND USES THEREOF” (EOS (ETHICAL ONCOLOGY SCIENCE) S.P.A., priority 2006, published 2009).
# “And” between values parts separate entries of the source, which are not always exact repeats. Identical values can stand only once. Counter-ions that a name gives are not always drawn.
# Test system: U937 cells
# Experiment: Proliferation test ViaLight HS, U937 cells (Example 8)
# Type: cell-based, human
# Details: 72 h incubation; range = multiple experiments, otherwise individual experiments
# Procedure: 2C Proliferation test ViaLight® HS High Sensitivity Cytotoxicity and Cell Proliferation BioAssay Kit
# This protocol allows the determination of the cytostatic and cytotoxic activities of compounds to be tested on mammalian cells in culture and was carried out essentially according to the manufacturer's recommendations.
# Cells are suspended in 15 mL of their respective media and are enumerated. They are then diluted in their media in order to obtain: • 2500 cells per 90 μL per well for MRC5 cells • 5000 cells per 90 μL per well for all other cell lines. Cells are then seeded in a 96 well plate, and incubated at least 4 hours in the incubator at 37° C. in 5% CO2.
# The molecules to be tested are diluted in DMEM with DMSO in order to obtain the following dilutions: • dilution at 250 μM/1% DMSO • dilution at 50 μM/1% DMSO • dilution at […] • dilution at 2 μM/1% DMSO • dilution at 400 nM/1% DMSO • dilution at 80 nM/1% DMSO For each well comprising 90 μL of cell suspension, 10 μL of a solution of the compound to be tested is added, with the 6 different concentrations. The plate is then incubated during 72 hours. One control plate is contacted with 10 μL of DMEM 1% DMSO, without compound to be tested. 50 μL of lysis buffer (test Vialight® lysis buffer) is added in each well of the control plate and the plate is incubated 10 minutes under hood.
# Then, 100 μL of test buffer (test Vialight® test buffer) is added in each well and the control plate is incubated during 2 minutes. The luminescence is read in each well. The mean luminescence for each type of cells is called T0.
# After the 72 h incubation, in order to determine the viability, 50 μL of lysis buffer (test Vialight® lysis buffer) is added in each well of the plates and the plates are incubated 10 minutes under hood.
# Then, 100 μL of test buffer (test Vialight® test buffer) is added in each well and the plates are incubated during 2 minutes. The luminescence is read in each well. For each type of cell, the mean luminescence in the well not containing the compound is called C72 and the mean luminescence in well containing a given concentration of a compound to be tested is called T72. For each dilution (concentration of compound to be tested), T0 and T72 values are compared.
# The graph is plotted for the different concentrations of compound and • GI50 (50% of growth inhibitory) is determined, this is the dose producing 50% of cell growth (intersection at Y=50); • TGI (total growth inhibitory) is determined on the graph, this is the dose producing the total arrest of the cell growth (intersection at Y=0); and • LC50 (50% of lethal concentration) is determined, this is the dose producing the death of 50% of the cells (intersection at Y=−50).
# Following the protocol described in Example 2C, different compounds according to the invention have been tested for their cytostatic and cytotoxic activities on mammalian cells in culture (specifically U937 cells).
# The GI50 (50% of growth inhibitory) has been determined for all the following compounds, i.e. the dose producing 50% of cell growth inhibition.
# Where the GI50 provided is in the form of a range, it means that multiple experiments, whose results fall within the range indicated, were performed. Otherwise, results of individual experiments are provided.
row,Compound,GI50
1,"COc1cc(NC(=N)NC(=O)c2ccccc2)ccc1-c1cc2ccccc2oc1=O [Compound 07, N-(imino{[3-methoxy-4-(2-oxo-2H-chromen-3-yl)phenyl]amino}methyl)benzamide]",800 nM
2,"COc1cc(NC(=S)NC(=O)/C=C/c2ccco2)ccc1-c1cc2ccccc2[nH]c1=O [Compound 15, (2E)-3-(2-furyl)-N-({[3-methoxy-4-(2-oxo-1,2-dihydroquinolin-3-yl)phenyl]amino}carbonothioyl)acrylamide]",63 nM and 210 nM
3,"COc1cc(NC(=O)Nc2ccc(N(C)C)cc2)ccc1-c1cc2ccccc2oc1=O [Compound 06, 1-(4-dimethylamino-phenyl)-3-[3-methoxy-4-(2-oxo-2H-chromen-3-yl)-phenyl]-urea.HCl]",580 nM

# Same assay, conditions: Homo sapiens, U-937, 72 h, 72 h incubation; range = multiple experiments, otherwise individual experiments
row,Compound,GI50
1,"COc1cc(NC(=N)NC(=O)c2ccccc2)ccc1-c1cc2ccccc2oc1=O [Compound 07, N-(imino{[3-methoxy-4-(2-oxo-2H-chromen-3-yl)phenyl]amino}methyl)benzamide]",630 nM
2,"COc1cc(NC(=O)Nc2ccccc2)ccc1-c1cc2ccccc2oc1=O [Compound 03, 1-[3-methoxy-4-(2-oxo-2H-chromen-3-yl)-phenyl]-3-phenyl-urea]",610 nM
3,"COc1cc(NC(=N)NC(=O)/C=C/c2ccco2)ccc1-c1cc2ccccc2oc1=O [Compound 12, (2E)-3-(2-furyl)-N-(imino{[3-methoxy-4-(2-oxo-2H-chromen-3-yl)phenyl]amino}methyl)acrylamide]",1600 to 2100 nM
4,"COc1cc(/N=C(\SC)N(C)C(=O)c2ccc(F)cc2)ccc1-c1cc2ccccc2oc1=O [Compound 25, 1-(4-fluoro-benzoyl)-3-[3-methoxy-4-(2-oxo-2H-chromen-3-yl)-phenyl]-1,2-dimethyl-isothiourea]",410 nM
5,"COc1cc(NC(=O)Nc2ccc(N(C)C)cc2)ccc1-c1cc2ccccc2oc1=O [Compound 06, 1-(4-dimethylamino-phenyl)-3-[3-methoxy-4-(2-oxo-2H-chromen-3-yl)-phenyl]-urea.HCl]",320 nM
6,"COc1cc(N(C(C)=O)S(=O)(=O)c2cc(C)oc2C)ccc1-c1cc2ccccc2oc1=O [Compound 23, 2,5-dimethyl-furan-3-sulfonic acid acetyl-[3-methoxy-4-(2-oxo-2H-chromen-3-yl)-phenyl]-amide]",~500 nM
7,"COc1cc(N(C)C(=N)NC(=O)/C=C/c2ccco2)ccc1-c1cc2ccccc2oc1=O [Compound 19, N′-((E)-3-furan-2-yl-acryloyl)-N-[3-methoxy-4-(2-oxo-2H-chromen-3-yl)-phenyl]-N-methyl-guanidine]",9200 nM
8,"COc1cc(NC(=S)NC(=O)/C=C/c2ccco2)ccc1-c1cc2ccccc2n(C)c1=O [Compound 17, (2E)-3-(2-furyl)-N-({[3-methoxy-4-(1-methyl-2-oxo-1,2-dihydroquinolin-3-yl)phenyl]amino}carbonothioyl)acrylamide]",45 nM
9,"COc1cc(NC(=S)Nc2ccc(N3CCOCC3)nc2)ccc1-c1cc2ccccc2oc1=O [Compound 08, 1-[3-methoxy-4-(2-oxo-2H-chromen-3-yl)-phenyl]-3-(6-morpholin-4-yl-pyridin-3-yl)-thiourea]",1200 nM
10,"COc1cc(NC(=S)Nc2ccc(N3CCOCC3)cc2)ccc1-c1cc2ccccc2oc1=O [Compound 20, 1-[3-methoxy-4-(2-oxo-2H-chromen-3-yl)-phenyl]-3-(4-morpholin-4-yl-phenyl)-thiourea]",1100 nM
11,"COc1cc(NC(=S)NC(=O)/C=C/c2ccco2)ccc1-c1cc2ccccc2n(CCO)c1=O [Compound 21, 1-((E)-3-furan-2-yl-acryloyl)-3-{4-[1-(2-hydroxy-ethyl)-2-oxo-1,2-dihydro-quinolin-3-yl]-3-methoxy-phenyl}-thiourea]",~90 nM
12,"COc1cc(/N=C(\SC)N(C)C(=O)/C=C/c2ccco2)ccc1-c1cc2ccccc2oc1=O [Compound 24, 1-((E)-3-furan-2-yl-acryloyl)-3-[3-methoxy-4-(2-oxo-2H-chromen-3-yl)-phenyl]-1,2-dimethyl-isothiourea]",33 nM
13,"COc1cc(NC(=N)NC(=O)c2ccccc2)ccc1-c1cc2ccccc2[nH]c1=O [Compound 22, N-Benzoyl-N′-[3-methoxy-4-(2-oxo-1,2-dihydro-quinolin-3-yl)-phenyl]-guanidine]",1000 nM
14,"COc1cc(NS(=O)(=O)c2cc(C)oc2C)ccc1-c1cc2ccccc2oc1=O [Compound 13, N-[3-methoxy-4-(2-oxo-2H-chromen-3-yl)phenyl]-2,5-dimethylfuran-3-sulfonamide]",100 nM
